From paper PMC10649968, “Structural Basis of the Immunological Cross-Reactivity between Kiwi and Birch Pollen” (Foods, 2023)

Columns and labels:
Act d 8 = molecular target: T1, Act d 8 (Actinidia deliciosa, UniProt D1YSM5); test: 1H-15N HSQC NMR titration (chemical shift perturbations); type: binding
T1 construct: gene ypr-10
T1 sequence (D1YSM5 1-157): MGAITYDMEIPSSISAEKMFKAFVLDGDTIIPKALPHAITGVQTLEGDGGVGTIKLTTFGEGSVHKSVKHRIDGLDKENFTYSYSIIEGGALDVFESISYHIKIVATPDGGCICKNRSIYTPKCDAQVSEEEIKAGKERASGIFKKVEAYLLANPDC

Act c 8 = molecular target: T2, Act c 8 (Actinidia chinensis, UniProt D1YSM4); test: as above; type: binding
T2 construct: gene ypr-10
T2 sequence (D1YSM4 1-159): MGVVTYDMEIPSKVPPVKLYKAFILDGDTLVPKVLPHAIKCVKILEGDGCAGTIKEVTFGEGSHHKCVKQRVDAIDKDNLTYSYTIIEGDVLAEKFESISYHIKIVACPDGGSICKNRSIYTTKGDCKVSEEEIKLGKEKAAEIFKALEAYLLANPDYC

Oc1cccc(O)c1O [pyrogallol]
Kd (Act d 8): 5 mM
Kd (Act c 8): 30 mM
